Measurements: patent US10683278B2 (JINAN UNIVERSITY, priority 2015, dated 2020)

biological target: T1, AXL kinase (Homo sapiens, UniProt P30530); assay: IC50 test on AXL kinase (Z′-LYTE FRET kinase activity detection); type: biochemical; conditions: Z′-LYTE FRET peptide assay, 1 h reaction
T1 construct: purchased Invitrogen PV4803
T1 sequence (P30530 26-894): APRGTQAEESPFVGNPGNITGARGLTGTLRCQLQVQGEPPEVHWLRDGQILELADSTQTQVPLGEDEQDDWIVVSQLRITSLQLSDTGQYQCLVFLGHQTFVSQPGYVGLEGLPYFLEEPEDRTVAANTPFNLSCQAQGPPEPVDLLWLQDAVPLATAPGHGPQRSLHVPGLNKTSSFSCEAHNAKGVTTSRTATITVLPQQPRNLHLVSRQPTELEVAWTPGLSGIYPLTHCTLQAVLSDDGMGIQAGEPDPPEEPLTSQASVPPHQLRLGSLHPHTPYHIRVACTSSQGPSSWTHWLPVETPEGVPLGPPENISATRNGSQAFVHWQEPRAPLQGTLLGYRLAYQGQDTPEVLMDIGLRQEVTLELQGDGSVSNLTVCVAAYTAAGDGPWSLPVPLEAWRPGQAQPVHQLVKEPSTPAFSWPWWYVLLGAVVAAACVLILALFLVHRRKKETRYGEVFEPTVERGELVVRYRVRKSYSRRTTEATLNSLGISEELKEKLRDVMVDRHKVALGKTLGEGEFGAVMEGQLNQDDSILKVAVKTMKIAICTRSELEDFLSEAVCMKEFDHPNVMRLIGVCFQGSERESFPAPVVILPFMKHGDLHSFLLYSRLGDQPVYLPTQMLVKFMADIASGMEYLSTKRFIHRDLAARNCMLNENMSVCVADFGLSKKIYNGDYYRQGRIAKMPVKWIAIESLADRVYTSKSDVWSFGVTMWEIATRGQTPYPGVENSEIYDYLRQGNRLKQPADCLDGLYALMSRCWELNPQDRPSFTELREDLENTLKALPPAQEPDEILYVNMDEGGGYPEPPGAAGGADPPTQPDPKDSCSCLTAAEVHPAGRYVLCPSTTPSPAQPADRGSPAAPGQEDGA
Excerpt: Kinase activity detection: The activity of compounds on kinases was detected by a secondary reaction which used the Z′-LYTE™ technique (a detection using fluorescence, enzyme coupling, and based on differences in susceptibility of phosphorylated and non-phosphorylated polypeptides to proteolytic cleavage), followed the fluorescence resonance energy transfer (FRET) principle, and used Z′-LYTE™ FRET peptide substrates (Invitrogen, Z′-LYTE™ KINASE ASSAY KIT—TYR 2 PEPTIDE, PV3191). AXL kinase (invitrogen, PV4803) was diluted stepwise, FRET peptide was then added, followed by ATP, then by compounds at different concentrations, reacted for 1 h, site-specific proteases were then added to recognize and cleave non-phosphorylated FRET peptides, reacted for 1 h, and […] at 445 nm and 520 nm were detected using excitation wavelength of 400 nm.

| IC50 | SMILES |
| --- | --- |
| 157 nM | CCc1ccc2c(c1)c(=O)c(C(=O)Nc1ccc(Oc3ncnc4[nH]ccc34)c(F)c1)c(C)n2C [TL4800147] |
| 195 nM | Cc1c(C(=O)Nc2ccc(Oc3ncnc4[nH]cc(-c5ccccc5)c34)c(F)c2)c(=O)c2cc(C3CCCC3)ccc2n1C [TL50161, 6-cyclopentyl-N-(3-fluoro-4-((5-phenyl-7H-pyrrolo[2,3-d]pyrimidin-4-yl)oxy)phenyl)-1,2-dimethyl-4-oxo-1,4-dihydroquinoline-3-carboxamide] |
| 533 nM | CCCn1c(C)c(C(=O)Nc2ccc(Oc3ncnc4[nH]cc(-c5ccccc5)c34)c(F)c2)c(=O)c2cc(C)ccc21 [TL4800104, N-(3-fluoro-4-(5-phenyl-7H-pyrrolo[2,3-d]pyrimidin-4-yloxy)phenyl)-2,6-dimethyl-4-oxo-1-propyl-1,4-dihydroquinoline-3-carboxamide] |
| 2630 nM | Cc1c(C(=O)Nc2ccc(Oc3ccnc4[nH]ccc34)c(F)c2)c(=O)c2cc(Cl)ccc2n1C [TL50090, N-(4-((1H-pyrrolo[2,3-b]pyridin-4-yl)oxy)-3-fluorophenyl)-6-chloro-1,2-dimethyl-4-oxo-1,4-dihydroquinoline-3-carboxamide] |
| > 10000 nM | Cc1c(C(=O)Nc2ccc(Oc3ncnc4[nH]ccc34)c(F)c2)c(=O)c2cc(Cl)ccc2n1C [TL50046, N-(4-((7H-pyrrolo[2,3-d]pyrimidin-4-yl)oxy)-3-fluorophenyl)-6-chloro-1,2-dimethyl-4-oxo-1,4-dihydroquinoline-3-carboxamide] |
| 1080 nM | COc1cc2ncnc(Oc3ccc(NC(=O)c4cn5c6c(c(N7CCN(C)CC7)c(F)cc6c4=O)OC[C@@H]5C)cc3F)c2cc1OC [GDL5000111, (S)—N-(4-((6,7-dimethoxyquinazolin-4-yl)oxy)-3-fluorophenyl)-9-fluoro-3-methyl-10-(4-methylpiperazin-1-yl)-7-oxo-3,7-dihydro-2H-[1,4]oxazino[2,3,4-ij]quinoline-6-carboxamide] |
| 720 nM | COc1cc2ncnc(Oc3ccc(NC(=O)c4c5n(c6cc(N7CCN(Cc8oc(=O)oc8C)CC7)c(F)cc6c4=O)C(C)S5)cc3F)c2cc1OC (centres unmarked) [GDL5000082, N-(4-((6,7-dimethoxyquinazolin-4-yl)oxy)-3-fluorophenyl)-6-fluoro-1-methyl-7-(4-((5-methyl-2-oxo-1,3-dioxol-4-yl)methyl)piperazin-1-yl)-4-oxo-1,4-dihydro-[1,3]thiazeto[3,2-a]quinoline-3-carboxamide] |
| 110 nM | O=C(Nc1ccc(Oc2ncnc3[nH]cc(-c4ccccc4)c23)c(F)c1)c1cn(C2CC2)c2cc(N3CCNCC3)c(F)cc2c1=O [TL4800095, 1-cyclopropyl-6-fluoro-N-(3-fluoro-4-((5-phenyl-7H-pyrrolo[2,3-d]pyrimidin-4-yl)oxy)phenyl)-4-oxo-7-(piperazin-1-yl)-1,4-dihydroquinoline-3-carboxamide] |
| 105 nM | CCc1ccc2c(c1)c(=O)c(C(=O)Nc1ccc(Oc3ncnc4[nH]cc(-c5ccccc5)c34)cc1)c(C)n2C [TL4830014, 6-ethyl-1,2-dimethyl-4-oxo-N-(4-((5-phenyl-7H-pyrrolo[2,3-d]pyrimidin-4-yl)oxy)phenyl)-1,4-dihydroquinoline-3-carboxamide] |
| 102 nM | Cc1ccc2c(c1)c(=O)c(C(=O)Nc1ccc(Oc3ncnc4[nH]cc(-c5ccccc5)c34)c(F)c1)c(C)n2C [TL50115, N-(3-fluoro-4-(5-phenyl-7H-pyrrolo[2,3-d]pyrimidin-4-yloxy)phenyl)-1,2,6-trimethyl-4-oxo-1,4-dihydroquinoline-3-carboxamide] |
| 224 nM | COc1cc2ncnc(Oc3ccc(NC(=O)c4cn(CCF)c5c(F)c(N6CCN(C)CC6)c(F)cc5c4=O)cc3F)c2cc1OC [TL4830040, N-(4-(6,7-dimethoxyquinazolin-4-yloxy)-3-fluorophenyl)-6,8-difluoro-1-(2-fluoroethyl)-7-(4-methylpiperazin-1-yl)-4-oxo-1,4-dihydroquinoline-3-carboxamide] |
| 56 nM | CCc1ccc2c(c1)c(=O)c(C(=O)Nc1ccc(Oc3ncnc4[nH]cc(-c5ccccc5)c34)c(F)c1)cn2C [TL4800178, 6-ethyl-N-(3-fluoro-4-(5-phenyl-7H-pyrrolo[2,3-d]pyrimidin-4-yloxy)phenyl)-1-methyl-4-oxo-1,4-dihydroquinoline-3-carboxamide] |
| 78 nM | CCc1c(C(=O)Nc2ccc(Oc3ncnc4[nH]cc(-c5ccccc5)c34)c(F)c2)c(=O)c2cc(C)ccc2n1C [TL4800139, 2-ethyl-N-(3-fluoro-4-(5-phenyl-7H-pyrrolo[2,3-d]pyrimidin-4-yloxy)phenyl)-1,6-dimethyl-4-oxo-1,4-dihydroquinoline-3-carboxamide] |
| 1.1 nM | CCc1ccc2c(c1)c(=O)c(C(=O)Nc1ccc(Oc3ncnc4cc(OCCCN(C)C)c(OC)cc34)c(F)c1)c(C)n2C [TL4830076, N-(4-(7-(3-(dimethylamino)propoxy)-6-methoxyquinazolin-4-yloxy)-3-fluorophenyl)-6-ethyl-1,2-dimethyl-4-oxo-1,4-dihydroquinoline-3-carboxamide] |
| 277 nM | CCN1CCN(c2cc3c(cc2F)c(=O)c(C(=O)Nc2ccc(Oc4ncnc5cc(OC)c(OC)cc45)c(F)c2)cn3C2CC2)CC1 [GDL5000093, 1-cyclopropyl-N-(4-(6,7-dimethoxyquinazolin-4-yloxy)-3-fluorophenyl)-7-(4-ethylpiperazin-1-yl)-6-fluoro-4-oxo-1,4-dihydroquinoline-3-carboxamide] |
| 569 nM | Cc1c(C(=O)Nc2ccc(Oc3ccnc4[nH]nc(-c5ccccc5)c34)c(F)c2)c(=O)c2cc(Cl)ccc2n1C [TL50025, 6-chloro-N-(3-fluoro-4-((3-phenyl-1H-pyrazolo[3,4-b]pyridin-4-yl)oxy)phenyl)-1,2-dimethyl-4-oxo-1,4-dihydroquinoline-3-carboxamide] |
| 1890 nM | Cc1c(C(=O)Nc2ccc(Oc3ncnc4[nH]cc(-c5ccccc5)c34)c(F)c2)c(=O)c2cc(Cl)ccc2n1C [TL50053, 6-chloro-N-(3-fluoro-4-((5-phenyl-7H-pyrrolo[2,3-d]pyrimidin-4-yl)oxy)phenyl)-1,2-dimethyl-4-oxo-1,4-dihydroquinoline-3-carboxamide] |
| 503 nM | COc1cc2ncnc(Oc3ccc(NC(=O)c4cn(C5CC5)c5c(F)c(N6CC(C)NC(C)C6)c(F)c(N)c5c4=O)cc3F)c2cc1OC (centres unmarked) [TL4830044, 5-amino-1-cyclopropyl-N-(4-(6,7-dimethoxyquinazolin-4-yloxy)-3-fluorophenyl)-7-(3,5-dimethylpiperazin-1-yl)-6,8-difluoro-4-oxo-1,4-dihydroquinoline-3-carboxamide] |
| 227 nM | Cc1c(C(=O)Nc2ccc(Oc3ncnc4[nH]cc(-c5ccccc5)c34)c(F)c2)c(=O)c2cc(C3CC3)ccc2n1C [TL50148, 6-cyclopropyl-N-(3-fluoro-4-((5-phenyl-7H-pyrrolo[2,3-d]pyrimidin-4-yl)oxy)phenyl)-1,2-dimethyl-4-oxo-1,4-dihydroquinoline-3-carboxamide] |
| 81 nM | COc1cc2ncnc(Oc3ccc(NC(=O)c4cn(-c5ccc(F)cc5F)c5nc(N6CCC(N)C6)c(F)cc5c4=O)cc3F)c2cc1OC (centres unmarked) [GDL5000101, 7-(3-aminopyrrolidin-1-yl)-1-(2,4-difluorophenyl)-N-(4-(6,7-dimethoxyquinazolin-4-yloxy)-3-fluorophenyl)-6-fluoro-4-oxo-1,4-dihydro-1,8-naphthyridine-3-carboxamide] |
| 476 nM | CCCCn1c(C)c(C(=O)Nc2ccc(Oc3ncnc4[nH]cc(-c5ccccc5)c34)c(F)c2)c(=O)c2cc(C)ccc21 [TL4800080, 1-butyl-N-(3-fluoro-4-((5-phenyl-7H-pyrrolo[2,3-d]pyrimidin-4-yl)oxy)phenyl)-2,6-dimethyl-4-oxo-1,4-dihydroquinoline-3-carboxamide] |
| 627 nM | CC1CCc2c(N3CCC(O)CC3)c(F)cc3c(=O)c(C(=O)Nc4ccc(Oc5ncnc6[nH]cc(-c7ccccc7)c56)c(F)c4)cn1c23 (centres unmarked) [GDL5000076, 9-fluoro-N-(3-fluoro-4-((5-phenyl-7H-pyrrolo[2,3-d]pyrimidin-4-yl)oxy)phenyl)-8-(4-hydroxypiperidin-1-yl)-5-methyl-1-oxo-1,5,6,7-tetrahydropyrido[3,2,1-ij]quinoline-2-carboxamide] |
| 129 nM | Cc1cc2c3c(c1)c(=O)c(C(=O)Nc1ccc(Oc4ncnc5[nH]cc(-c6ccccc6)c45)c(F)c1)cn3CCC2 [TL4800160, N-(3-fluoro-4-((5-phenyl-7H-pyrrolo[2,3-d]pyrimidin-4-yl)oxy)phenyl)-9-methyl-1-oxo-1,5,6,7-tetrahydropyrido[3,2,1-ij]quinoline-2-carboxamide] |
